Reference: US20230019491A1, “PYRIMIDINE TBK/IKKe INHIBITOR COMPOUNDS AND USES THEREOF” (Merck Patent GmbH, priority 2017, published 2023)
Read-outs that look alike come from different tables or passages of the source.

Assays:
TBK1 = target: T1, TBK1 (Homo sapiens, UniProt Q9UHD2); assay: TBK biochemical assay
T1 sequence (Q9UHD2 1-729): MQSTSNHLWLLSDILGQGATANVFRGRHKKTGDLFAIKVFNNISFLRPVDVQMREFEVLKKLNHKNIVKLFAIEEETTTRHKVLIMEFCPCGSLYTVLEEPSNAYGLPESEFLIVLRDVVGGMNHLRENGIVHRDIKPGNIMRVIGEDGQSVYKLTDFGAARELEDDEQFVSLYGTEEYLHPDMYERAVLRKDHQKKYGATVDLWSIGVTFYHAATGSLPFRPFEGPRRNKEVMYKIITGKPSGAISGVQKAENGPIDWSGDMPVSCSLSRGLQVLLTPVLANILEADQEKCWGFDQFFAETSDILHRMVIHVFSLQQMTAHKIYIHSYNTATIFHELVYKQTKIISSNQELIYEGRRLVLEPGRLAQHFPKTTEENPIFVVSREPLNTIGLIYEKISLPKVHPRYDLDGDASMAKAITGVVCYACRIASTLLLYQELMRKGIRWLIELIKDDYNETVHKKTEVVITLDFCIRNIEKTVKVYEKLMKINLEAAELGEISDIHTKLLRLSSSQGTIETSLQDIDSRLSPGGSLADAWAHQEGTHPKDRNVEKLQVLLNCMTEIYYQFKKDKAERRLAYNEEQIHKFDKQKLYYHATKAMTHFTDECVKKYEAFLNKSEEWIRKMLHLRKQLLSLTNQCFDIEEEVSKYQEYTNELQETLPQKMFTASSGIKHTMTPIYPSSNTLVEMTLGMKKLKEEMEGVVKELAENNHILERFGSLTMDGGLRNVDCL
Protocol: (§1) Test compounds were transferred into Labcyte polypropylene 384 well plates (P055-25) and diluted to 3 mM using DMSO. […] 100 uM of a reference compound (1 uM final high concentration). Backfilling was performed if necessary so that all wells contain 1% DMSO final:
(§2) add 75 nl DMSO/well into columns 1, 2 and 24 using Labcyte Echo. add 75 nl 1.0 mM staurosporine/well into column 23 using Labcyte Echo ([…]) add 4.5 ul enzyme/well using multidrop dispenser add 3 ul substrate/well using multidrop dispenser incubate at 25° C. in Heidolph incubator for 90 min. add 7.5 ul 2× stop buffer using multidrop dispenser read on labchip ez reader II using TBK1.job
(§3) Raw data files were opened in the Caliper LabChip Reviewer program (Version 3.0.265.0 SP2) and peak assignments were adjusted to reflect “substrate first” with the software's post-run analysis options. A spline-fit baseline was applied using the software's analysis algorithm.

IKKε = target: T2, IKKε (Homo sapiens, UniProt Q14164); assay: IKKε biochemical assay; conditions: 30 uM top concentration, 90 min at 25° C., LabChip EZ Reader II
T2 sequence (Q14164 1-716): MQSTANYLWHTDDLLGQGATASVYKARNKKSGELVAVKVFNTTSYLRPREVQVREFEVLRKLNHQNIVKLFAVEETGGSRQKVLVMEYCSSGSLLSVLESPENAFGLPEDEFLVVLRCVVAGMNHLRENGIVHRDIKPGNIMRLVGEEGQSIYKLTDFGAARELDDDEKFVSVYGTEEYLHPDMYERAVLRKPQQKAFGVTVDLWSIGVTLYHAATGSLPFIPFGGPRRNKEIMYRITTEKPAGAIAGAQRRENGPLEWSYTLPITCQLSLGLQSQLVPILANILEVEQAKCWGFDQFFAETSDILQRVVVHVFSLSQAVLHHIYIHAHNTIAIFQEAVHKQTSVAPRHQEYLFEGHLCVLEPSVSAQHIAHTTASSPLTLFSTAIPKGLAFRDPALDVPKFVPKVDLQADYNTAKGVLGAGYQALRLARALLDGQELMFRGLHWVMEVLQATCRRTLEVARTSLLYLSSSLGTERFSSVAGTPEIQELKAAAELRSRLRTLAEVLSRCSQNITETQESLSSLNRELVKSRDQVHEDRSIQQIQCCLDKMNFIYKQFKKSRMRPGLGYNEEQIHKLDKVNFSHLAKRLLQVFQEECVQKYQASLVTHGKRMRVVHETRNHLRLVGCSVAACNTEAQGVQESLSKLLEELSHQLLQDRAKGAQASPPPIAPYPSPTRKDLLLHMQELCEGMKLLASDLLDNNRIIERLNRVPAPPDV
Protocol: as §1
as §2, with “C.” for “C. in Heidolph incubator”, “buffer” for “buffer using multidrop dispenser”, “IKKε.” for “TBK1.job”
as §3

[1] = 10 point 1:4 dose response, 30 uM top concentration, 90 min at 25° C., LabChip EZ Reader II, read-out: TBK1_IC50
[2] = 10 point 1:4 dose response, read-out: IKKε_IC50

Compound	IC50 (TBK1; [1])	IC50 (IKKε; [2])	IC50 (TBK1)	IC50 (IKKε; IKKε_IC50, 10 point 1:4 dose response)
COc1nc(Nc2nccc(-c3ccc(OC4CCOCC4)c(C#N)c3)n2)ccc1C(=O)N(C)C [Example 1, 6-([4-[3-cyano-4-(oxan-4-yloxy)phenyl]pyrimidin-2-yl]amino)-2-methoxy-N,N-dimethylpyridine-3-carboxamide]	< 100 nM	< 100 nM	–	–
COc1nc(Nc2nccc(-c3ccc(OC4CCOCC4)c(C#N)c3)n2)ccc1C(=O)NCCO [Example 2, 6-([4-[3-cyano-4-(oxan-4-yloxy)phenyl]pyrimidin-2-yl]amino)-N-(2-hydroxyethyl)-2-methoxypyridine-3-carboxamide]	< 100 nM	< 100 nM	–	–
COc1nc(Nc2nccc(-c3ccc(OC4CCOCC4)c(C#N)c3)n2)ccc1C(=O)N(C)CCO [Example 3, 6-([4-[3-cyano-4-(oxan-4-yloxy)phenyl]pyrimidin-2-yl]amino)-N-(2-hydroxyethyl)-2-methoxy-N-methylpyridine-3-carboxamide]	< 100 nM	< 100 nM	–	–
COc1nc(Nc2nccc(-c3ccc(OC4CCOCC4)c(C#N)c3)n2)ccc1C(=O)NC[C@H](O)CO [Example 4, 6-{4-[3-Cyano-4-(tetrahydro-pyran-4-yloxy)-phenyl]-pyrimidin-2-ylamino}-N-((S)-23-dihydroxy-propyl)-2-methoxy-nicotinamide]	< 100 nM	< 100 nM	–	–
COc1nc(Nc2nccc(-c3ccc(OC4CCOCC4)c(C#N)c3)n2)ccc1C(=O)N1CCS(=O)(=O)CC1 [Example 5, 5-{2-[5-(1,1-Dioxo-thiomorpholine-4-carbonyl)-6-methoxy-pyridin-2-ylamino]-pyrimidin-4-yl}-2-(tetrahydro-pyran-4-yloxy)-benzonitrile]	< 100 nM	< 100 nM	–	–
COc1nc(Nc2nccc(-c3ccc(OC4CCOCC4)c(C#N)c3)n2)ccc1C(=O)N1CCNC(=O)C1 [Example 6, 5-{2-[6-methoxy-5-(3-oxo-piperazine-1-carbonyl)-pyridin-2-ylamino]-pyrimidin-4-yl}-2-(tetrahydro-pyran-4-yloxy)-benzonitrile]	< 100 nM	< 100 nM	–	–
COc1nc(Nc2nccc(-c3ccc(OC4CCOCC4)c(C#N)c3)n2)ccc1C(=O)N1CC2CC(C1)O2 [Example 7, 5-(2-[[6-methoxy-5-([6-oxa-3-azabicyclo[3.1.1]heptan-3-yl]carbonyl)pyridin-2-yl]amino]pyrimidin-4-yl)-2-(oxan-4-yloxy)benzonitrile]	–	–	< 100 nM	< 100 nM

Now from value to compound, other results behind:

IC50 (TBK1; [1])	IC50 (IKKε; [2])	Compound	IC50 (TBK1)	IC50 (IKKε; IKKε_IC50, 10 point 1:4 dose response)
< 100 nM	< 100 nM	COc1nc(Nc2nccc(-c3ccc(OC4CCN(C(=O)[C@@H](C)O)CC4(F)F)c(C#N)c3)n2)ccc1N1CCN(C)CC1C (stereo in doubt) [Example 110, 2-[3,3-Difluoro-1-((R)-2-hydroxy-propionyl)-piperidin-4-yloxy]-5-{2-[5-((S)-2,4-dimethyl-piperazin-1-yl)-6-methoxy-pyridin-2-ylamino]-pyrimidin-4-yl}-benzonitrile]	–	–
< 100 nM	< 100 nM	COc1nc(Nc2nccc(-c3ccc(OC4CCN(C(=O)[C@H](C)O)CC4(F)F)c(C#N)c3)n2)ccc1N1CCN(C)CC1C (stereo in doubt) [Example 112, 2-[3,3-Difluoro-1-((S)-2-hydroxy-propionyl)-piperidin-4-yloxy]-5-{2-[5-((S)-2,4-dimethyl-piperazin-1-yl)-6-methoxy-pyridin-2-ylamino]-pyrimidin-4-yl}-benzonitrile]	–	–
< 100 nM	< 100 nM	COc1nc(Nc2nccc(-c3ccc(OC4CCN(C(=O)C(C)O)CC4(F)F)c(C#N)c3)n2)ccc1N1CCN(C2COC2)CC1 (stereo in doubt) [Example 261, 2-([3,3-difluoro-1-[(2S)-2-hydroxypropanoyl]piperidin-4-yl]oxy)-5-[2-([6-methoxy-5-[4-(oxetan-3-yl)piperazin-1-yl]pyridin-2-yl]amino)pyrimidin-4-yl]benzonitrile]	–	–
< 100 nM	< 100 nM	COc1nc(Nc2ncc(F)c(-c3ccc(O[C@H]4CCN(C(=O)C(C)O)C[C@H]4F)c(C#N)c3)n2)ccc1N1CCN(C2COC2)CC1 (stereo in doubt) [Example 297, 2-{[3-fluoro-1-(2-hydroxypropanoyl)piperidin-4-yl]oxy}-5-[5-fluoro-2-({6-methoxy-5-[4-(oxetan-3-yl)piperazin-1-yl]pyridin-2-yl}amino)pyrimidin-4-yl]benzonitrile]	–	–
< 100 nM	< 100 nM	COc1cc(Nc2nccc(-c3ccc(OC4CCN(C(=O)C(C)O)CC4(F)F)c(C#N)c3)n2)ccn1 (stereo in doubt) [Example 327, 2-([3,3-difluoro-1-[(2S)-2-hydroxypropanoyl]piperidin-4-yl]oxy)-5-[2-[(2-methoxypyridin-4-yl)amino]pyrimidin-4-yl]benzonitrile]	–	–
< 100 nM	< 100 nM	COc1cccc(Nc2nccc(-c3ccc(OC4CCN(C(=O)C(C)O)CC4(F)F)c(C#N)c3)n2)n1 (stereo in doubt) [Example 328, 2-([3,3-difluoro-1-[(2S)-2-hydroxypropanoyl]piperidin-4-yl]oxy)-5-[2-[(6-methoxypyridin-2-yl)amino]pyrimidin-4-yl]benzonitrile]	–	–
< 100 nM	< 100 nM	COc1nc(Nc2nccc(-c3ccc(OC4CCOCC4)c(C#N)c3)n2)ccc1C(=O)NC1C2COCC21 (centres unmarked) [Example 8, 6-([4-[3-cyano-4-(oxan-4-yloxy)phenyl]pyrimidin-2-yl]amino)-2-methoxy-N-[3-oxabicyclo[3.1.0]hexan-6-yl]pyridine-3-carboxamide]	–	–
< 100 nM	< 100 nM	COc1nc(Nc2nccc(-c3ccc(OC4CCOCC4)c(C#N)c3)n2)ccc1C(=O)NC1CCCC1O (centres unmarked) [Example 9, 6-{4-[3-Cyano-4-(tetrahydro-pyran-4-yloxy)-phenyl]-pyrimidin-2-ylamino}-N-(2-hydroxy-cyclopentyl)-2-methoxy-nicotinamide]	–	–
< 100 nM	< 100 nM	COc1nc(Nc2nccc(-c3ccc(OC4CCOCC4)c(C#N)c3)n2)ccc1C(=O)N1CC2CCC(C1)O2 [Example 10, 5-(2-[[6-methoxy-5-([8-oxa-3-azabicyclo[3.2.1]octan-3-yl]carbonyl)pyridin-2-yl]amino]pyrimidin-4-yl)-2-(oxan-4-yloxy)benzonitrile]	–	–
< 100 nM	< 100 nM	COc1nc(Nc2nccc(-c3ccc(OC4CCOCC4)c(C#N)c3)n2)ccc1C(=O)N1CC2CCC1CO2 (centres unmarked) [Example 11, 5-(2-[[6-methoxy-5-([2-oxa-5-azabicyclo[2.2.2]octan-5-yl]carbonyl)pyridin-2-yl]amino]pyrimidin-4-yl)-2-(oxan-4-yloxy)benzonitrile]	–	–
< 100 nM	–	COc1nc(Nc2nccc(-c3ccc(O[C@H]4CCN(C(=O)[C@H](C)O)CC4(F)F)c(C#N)c3)n2)ccc1N1CCN(C2COC2)CC1 [Example 121, 2-[[(4S)-3,3-difluoro-1-[(2S)-2-hydroxypropanoyl]piperidin-4-yl]oxy]-5-[2-([6-methoxy-5-[4-(oxetan-3-yl)piperazin-1-yl]pyridin-2-yl]amino)pyrimidin-4-yl]benzonitrile]	–	–
